One experiment deals with 8×TBD luciferase reporter (YAP) in HEK293T cells. The experiment in a line: YAP Reporter Assay (8×TBD firefly luciferase reporter). Type of experiment: cell-based. Conditions: Homo sapiens, HEK-293T, 24 h, read-out: Firefly Luciferase IC50 (μM). A digest of the protocol:
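Stably transfected HEK293T cells (8×TBD firefly luciferase plus TK-renilla) were dosed with 10-point 1:3 dilutions from 3 μM final, quadruplicates, for 24 h at 37 °C. Dual-Glo read firefly and renilla luminescence; IC50 and maximal inhibition reported separately for each.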
(In general: Reporter assays use an easily measured gene product as a stand-in for the process of interest.)
For the compound `COc1cc(Oc2ccc(C(F)(F)F)cc2)c2ncc(C(=O)NC(C)C)cc2c1` [Compound 113, N-Isopropyl-6-methoxy-8-(4-(trifluoromethyl)phenoxy)quinoline-3-carboxamide], the half-inhibitory concentration (IC50) was under 0.1 µM.

The experiment is the same for the next values; noted with them: Homo sapiens, HEK-293T; HEK293T cells stably transfected with 8×TBD luciferase reporter and pRLTK; 24-hr incubation; firefly luciferase activity; read-out: Firefly Luciferase IC50.
For `C[C@@H](NC(=O)c1ccc2c(Oc3ccc(C(F)(F)F)cc3)cccc2c1)c1cccc(N(C)C)n1` [Compound 77, (R)—N-(1-(6-(dimethylamino)pyridin-2-yl)ethyl)-5-(4-(trifluoromethyl)phenoxy)-2-naphthamide], the IC50 was under 0.1 µM. Turning to `C[C@H](NC(=O)c1ccc2c(Oc3ccc(C(F)(F)F)cc3)cccc2c1)c1cccnc1N` [Compound 78, (S)—N-(1-(2-aminopyridin-3-yl)ethyl)-5-(4-(trifluoromethyl)phenoxy)-2-naphthamide], the IC50 was under 0.1 µM. With `C[C@@H](NC(=O)c1ccc2c(Oc3ccc(C(F)(F)F)cc3)cccc2c1)c1cccnc1N` [Compound 79, (R)—N-(1-(2-aminopyridin-3-yl)ethyl)-5-(4-(trifluoromethyl)phenoxy)-2-naphthamide], the IC50 was 1 to 3 µM.

`O=C(NC(CO)Cc1ccccn1)c1ccc2c(Oc3ccc(C(F)(F)F)cc3)cccc2c1` (stereo not drawn) [Compound 80, N-[1-(hydroxymethyl)-2-(2-pyridyl)ethyl]-5-[4-(trifluoromethyl)phenoxy]naphthalene-2-carboxamide]: the IC50 was under 0.1 µM. Take `CC(C)NC(=O)c1cnc2c(Oc3ccc(C(F)(F)F)cc3)cc(F)c(F)c2c1` [Compound 81, 5,6-difluoro-N-isopropyl-8-(4-(trifluoromethyl)phenoxy)quinoline-3-carboxamide]: the IC50 was under 0.1 µM.

Turning to `C[C@H](NC(=O)c1ccc2c(Oc3ccc(C(F)(F)F)cc3)cccc2c1)c1ccccc1Cl` [Compound 83, (S)—N-(1-(2-chlorophenyl)ethyl)-5-(4-(trifluoromethyl)phenoxy)-2-naphthamide], the half-inhibitory concentration (IC50) was under 0.1 µM.

In the case of `CC(C)NC(=O)c1ccc2c(Oc3ccc(C(F)(F)F)cc3F)cccc2c1` [Compound 84, 5-(2-fluoro-4-(trifluoromethyl)phenoxy)-N-isopropyl-2-naphthamide], the IC50 is under 0.1 µM. `CC(C)NC(=O)c1ccc2c(Oc3ccc(C(F)(F)F)cc3Cl)cccc2c1` [Compound 85, 5-(2-chloro-4-(trifluoromethyl)phenoxy)-N-isopropyl-2-naphthamide]: the IC50 is under 0.1 µM.

As to `N#CNC(=O)c1ccc2c(Oc3ccc(C(F)(F)F)cc3)cccc2c1` [Compound 86, N-cyano-5-[4-(trifluoromethyl)phenoxy]naphthalene-2-carboxamide], the IC50 is 0.1 to 1 µM. `C[C@@H](NC(=O)c1ccc2c(Oc3ccc(C(F)(F)F)cc3)cccc2c1)c1cccc2cn[nH]c12` [Compound 87, N-[(1R)-1-(1H-indazol-7-yl)ethyl]-5-[4-(trifluoromethyl)phenoxy]naphthalene-2-carboxamide]: the IC50 was under 0.1 µM. Regarding `CC#C[C@H](C)NC(=O)c1ccc2c(Oc3ccc(C(F)(F)F)cc3)cccc2c1` [Compound 89, N-[(1S)-1-methylbut-2-ynyl]-5-[4-(trifluoromethyl)phenoxy]naphthalene-2-carboxamide], the IC50 is under 0.1 µM.

On to `CC#C[C@@H](C)NC(=O)c1ccc2c(Oc3ccc(C(F)(F)F)cc3)cccc2c1` [Compound 90, N-[(1R)-1-methylbut-2-ynyl]-5-[4-(trifluoromethyl)phenoxy]naphthalene-2-carboxamide], for which the IC50 was under 0.1 µM. `C[C@@H](NC(=O)c1ccc2c(Oc3ccc(C(F)(F)F)cc3)cccc2c1)c1cn(C)cn1` [Compound 91, N-[(1R)-1-(1-methylimidazol-4-yl)ethyl]-5-[4-(trifluoromethyl)phenoxy]naphthalene-2-carboxamide]: the IC50 was under 0.1 µM. For the compound `C[C@H](NC(=O)c1ccc2c(Oc3ccc(C(F)(F)F)cc3)cccc2c1)c1cn(C)cn1` [Compound 92, N-[(1S)-1-(1-methylimidazol-4-yl)ethyl]-5-[4-(trifluoromethyl)phenoxy]naphthalene-2-carboxamide], the IC50 was in the range of 0.1 to 1 µM. As for `CC(C)NC(=O)c1ccc2c(Oc3ccc(C(F)(F)F)cc3)cncc2c1` [Compound 93, N-isopropyl-4-(4-(trifluoromethyl)phenoxy)isoquinoline-7-carboxamide], the IC50 is under 0.1 µM. On the same count and under the same terms, to `O=C(NC(CCO)c1ccccn1)c1ccc2c(Oc3ccc(C(F)(F)F)cc3)cccc2c1` (stereo not drawn) [Compound 94, N-(3-hydroxy-1-(pyridin-2-yl)propyl)-5-(4-(trifluoromethyl)phenoxy)-2-naphthamide] belongs under 0.1 µM; to `C[C@H](NC(=O)c1ccc2c(Oc3ccc(C(F)(F)F)cc3)cccc2c1)C1CNC1` [Compound 95, N-[(1S)-1-(azetidin-3-yl)ethyl]-5-[4-(trifluoromethyl)phenoxy]naphthalene-2-carboxamide], under 0.1 µM. On the same count and under the same terms, in the case of `C[C@@H](NC(=O)c1ccc2c(Oc3ccc(C(F)(F)F)cc3)cccc2c1)C1CNC1` [Compound 96, N-[(1R)-1-(azetidin-3-yl)ethyl]-5-[4-(trifluoromethyl)phenoxy]naphthalene-2-carboxamide] it was under 0.1 µM; in that of `C[C@H](NC(=O)c1cc2cccc(Oc3ccc(C(F)(F)F)cc3)c2s1)c1ccccn1` [Compound 97, (S)—N-(1-(pyridin-2-yl)ethyl)-7-(4-(trifluoromethyl)phenoxy)benzothiophene-2-carboxamide], under 0.1 µM; in that of `C[C@@H](NC(=O)c1ccc2c(Oc3ccc(C(F)(F)F)cc3)cccc2c1)c1cccc2ccc(=O)[nH]c12` [Compound 98, N-[(1R)-1-(2-oxo-1H-quinolin-8-yl)ethyl]-5-[4-(trifluoromethyl)phenoxy]naphthalene-2-carboxamide], under 0.1 µM.

On to `CC(=O)N1CC([C@H](C)NC(=O)c2ccc3c(Oc4ccc(C(F)(F)F)cc4)cccc3c2)C1` [Compound 100, (S)—N-(1-(1-acetylazetidin-3-yl)ethyl)-5-(4-(trifluoromethyl)phenoxy)-2-naphthamide], for which the IC50 was 0.1 to 1 µM. The same measure, in the same setting: in the case of `CC(=O)N1CC([C@@H](C)NC(=O)c2ccc3c(Oc4ccc(C(F)(F)F)cc4)cccc3c2)C1` [Compound 101, (R)—N-(1-(1-acetylazetidin-3-yl)ethyl)-5-(4-(trifluoromethyl)phenoxy)-2-naphthamide] it was 0.1 to 1 µM; in that of `C[C@H](CO)NC(=O)c1cnc2c(Oc3ccc(C(F)(F)F)cc3)cc(F)c(F)c2c1` [Compound 102, (R)-5,6-difluoro-N-(1-hydroxypropan-2-yl)-8-(4-(trifluoromethyl)phenoxy)quinoline-3-carboxamide], under 0.1 µM.

`C[C@@H](NC(=O)c1cnc2c(Oc3ccc(C(F)(F)F)cc3)cccc2c1)c1cccc2nc[nH]c12` [Compound 103, (R)—N-(1-(1H-benzo[d]imidazol-7-yl)ethyl)-8-(4-(trifluoromethyl)phenoxy)quinoline-3-carboxamide]: the concentration for half-maximal inhibition (IC50) fell in the range of 0.1 to 1 µM. On to `C[C@H](NC(=O)c1cnc2c(Oc3ccc(C(F)(F)F)cc3)cccc2c1)c1cccc2nc[nH]c12` [Compound 104, (S)—N-(1-(1H-benzo[d]imidazol-7-yl)ethyl)-8-(4-(trifluoromethyl)phenoxy)quinoline-3-carboxamide], for which the IC50 was under 0.1 µM.

For the compound `C[C@@H](NC(=O)c1cnc2c(Oc3ccc(C(F)(F)F)cc3)cccc2c1)c1cccc2ccsc12` [Compound 105, (R)—N-(1-(benzo[b]thiophen-7-yl)ethyl)-8-(4-(trifluoromethyl)phenoxy)quinoline-3-carboxamide], the IC50 lay in the range of 0.1 to 1 µM.

For `C[C@H](CN)NC(=O)c1ccc2c(Oc3ccc(C(F)(F)F)cc3)cccc2c1` [Compound 107, (R)—N-(1-aminopropan-2-yl)-5-(4-(trifluoromethyl)phenoxy)-2-naphthamide], the IC50 lay in the range of 0.1 to 1 µM.

As for `C[C@@H](CN)NC(=O)c1ccc2c(Oc3ccc(C(F)(F)F)cc3)cccc2c1` [Compound 108, (S)—N-(1-aminopropan-2-yl)-5-(4-(trifluoromethyl)phenoxy)-2-naphthamide], the IC50 was under 0.1 µM. Turning to `O=C(N[C@H](CCO)c1ccccn1)c1ccc2c(Oc3ccc(C(F)(F)F)cc3)cccc2c1` [Compound 109, (R)—N-(3-hydroxy-1-(pyridin-2-yl)propyl)-5-(4-(trifluoromethyl)phenoxy)-2-naphthamide], the IC50 was in the range of 0.1 to 1 µM. As for `O=C(N[C@@H](CCO)c1ccccn1)c1ccc2c(Oc3ccc(C(F)(F)F)cc3)cccc2c1` [Compound 110, (S)—N-(3-hydroxy-1-(pyridin-2-yl)propyl)-5-(4-(trifluoromethyl)phenoxy)-2-naphthamide], the IC50 is under 0.1 µM. As to `C[C@@H](CCN)NC(=O)c1ccc2c(Oc3ccc(C(F)(F)F)cc3)cccc2c1` [Compound 111, (S)—N-(4-aminobutan-2-yl)-5-(4-(trifluoromethyl)phenoxy)-2-naphthamide], the IC50 was under 0.1 µM. Turning to `C[C@H](CCN)NC(=O)c1ccc2c(Oc3ccc(C(F)(F)F)cc3)cccc2c1` [Compound 112, (R)—N-(4-aminobutan-2-yl)-5-(4-(trifluoromethyl)phenoxy)-2-naphthamide], the IC50 is under 0.1 µM. With `C[C@H](CCO)NC(=O)c1ccc2c(Oc3ccc(C(F)(F)F)cc3)cccc2c1` [Compound 114, (R)—N-(4-hydroxybutan-2-yl)-5-(4-(trifluoromethyl)phenoxy)-2-naphthamide], the IC50 was under 0.1 µM. Regarding `C[C@@H](CCO)NC(=O)c1ccc2c(Oc3ccc(C(F)(F)F)cc3)cccc2c1` [Compound 115, (S)—N-(4-hydroxybutan-2-yl)-5-(4-(trifluoromethyl)phenoxy)-2-naphthamide], the IC50 is under 0.1 µM. Consider `COc1cc(Oc2ccc(C(F)(F)F)cc2)c2ncc(C(=O)N[C@H](C)CO)cc2c1` [Compound 116, (R)—N-(1-hydroxypropan-2-yl)-6-methoxy-8-(4-(trifluoromethyl)phenoxy)quinoline-3-carboxamide], for which the IC50 was under 0.1 µM.

For orientation: IC50 means the concentration that inhibits the measured activity by half.

(Values after patent US11420935B2, “Bicyclic compounds” (Vivace Therapeutics, Inc., priority 2019, dated 2022).)
